Data from patent US4166810A, “Derivatives of 4-desacetyl VLB C-3 carboxyhydrazide” (priority 1978, dated 1979).
Read-outs that look alike come from different tables or passages of the source.

Assays:
Gardner lymphosarcoma = conditions: Belgian Pat. No. 813,168; cited from earlier work
P 1534(J) leukemia = conditions: Belgian Pat. No. 813,168; cited from earlier work
transplanted tumors = conditions: Belgian Pat. No. 813,168; cited from earlier work
[1] = system: Ridgeway osteogenic sarcoma; conditions: Belgian Pat. No. 813,168; cited from earlier work
leukemias = conditions: clinical trial in humans; cited from earlier work
[2] = system: vincristine-resistant leukemias; conditions: humans; cited from earlier work
[3] = humans; compared with vincristine; cited from earlier work
[4] = system: experimental malignancies; conditions: animals; cited from earlier work
[5] = system: Gardner lymphosarcoma (GLS); assay: Transplanted tumor growth inhibition in mice, Gardner lymphosarcoma (GLS); format: in vivo; conditions: for inhibition in vivo at 0.125 mg/kg: 0.125 mg/kg × 10 days; for inhibition in vivo at 0.25 mg/kg: 0.25 mg/kg × 10 days
Experimental: (§1) The compounds of this invention are active in inhibiting the growth of transplanted tumors in mice and/or in prolonging the life of tumor-innoculated mice. […] The size of the tumor was measured at 7 or 11 days where the drug inhibited tumor growth. Where life-prolongation was concerned, extra life span of treated animals over that of control animals was determined.
(§2) The following table--Table 1--gives the results of experiments in which mice bearing transplanted tumors were treated successfully with a compound of this invention. In the table, column 1 gives the name of the compound; column 2, the transplanted tumor; column 3, the dose level or dose level range and the number of days the dosage was administered; and column 4, the percent inhibition of tumor growth or percent prolongation of survival time, e.g., B16 (ROS is an abbreviation for Ridgeway osteogenic sarcoma; GLS for Gardner lymphosarcoma; P 1534 (J) for a leukemia and B16 for a malignant melanoma.

B16 malignant melanoma = assay: Survival prolongation in mice bearing B16 malignant melanoma; format: in vivo
Experimental: as §1, §2

[6] = Mus musculus, 168 h, measured at 7 days, read-out: Percent Inhibition (of tumor growth), 7 days
[7] = Mus musculus, 264 h, measured at 11 days, read-out: Percent Inhibition (of tumor growth), 11 days

## CCC1(O)CC2CN(CCc3c([nH]c4ccccc34)C(C(=O)OC)(c3cc4c(cc3OC)N(C)C3C(O)(C(=O)NN)C(O)C5(CC)C=CCN6CCC43C65)C2)C1 (stereo not shown) [4-Desacetyl VLB C-3 carboxhydrazide]
Gardner lymphosarcoma
  activity against Gardner lymphosarcoma: active
P 1534(J) leukemia
  activity against P 1534(J) leukemia: active
Transplanted tumors
  anti-tumor activity against transplanted tumors in mice: active anti-tumor agent against transplanted tumors in mice
[1]
  activity against Ridgeway osteogenic sarcoma: active

## CC[C@]1(O)C[C@@H]2CN(CCc3c([nH]c4ccccc34)[C@@](C(=O)OC)(c3cc4c(cc3OC)N(C)[C@H]3[C@@](O)(C(N)=O)[C@H](O)[C@]5(CC)C=CCN6CC[C@]43[C@@H]65)C2)C1 [vindesine, 4-desacetyl VLB C-3 carboxamide]
leukemias
  activity in leukemias: found active in certain leukemias
[2]
  effectiveness against vincristine-resistant leukemias: apparently effective against vincristine-resistant leukemias
[3]
  neurotoxicity: less neurotoxicity than does vincristine

## CCC1(O)CC2CN(CCc3c([nH]c4ccccc34)C(C(=O)OC)(c3cc4c(cc3OC)N(C)C3C(O)(C(=O)OC)CC5(CC)C=CCN6CCC43C65)C2)C1 (stereo not shown) [4-desacetoxyvinblastine]
[4]
  activity in the treatment of experimental malignancies: found active in the treatment of experimental malignancies in animals

## CCC1CC2CN(CCc3c([nH]c4ccccc34)C(C(=O)OC)(c3cc4c(cc3OC)N(C)C3C(O)(C(=O)OC)C(OC(C)=O)C5(CC)C=CCN6CCC43C65)C2)C1 (stereo not shown) [deoxy VLB "A"]
[4]
  activity in the treatment of experimental malignancies: found active in the treatment of experimental malignancies in animals

## CCC1(O)CC2CN(CCc3c([nH]c4ccccc34)C(C(=O)OC)(c3cc4c(cc3OC)N(C)C3C(O)(C(=O)NNC(C)=O)C(O)C5(CC)C=CCN6CCC43C65)C2)C1 (stereo not shown) [4-Desacetyl VLB C-3 N^2-acetylcarboxhydrazide]
[5]; 0.5 mg/kg × 10 days, measured at 11 days
  Percent Inhibition (of tumor growth), 11 days: Toxic
[5]; [6]
  inhibition in vivo at 0.125 mg/kg: 100%
  inhibition in vivo at 0.25 mg/kg: 100%
[5]; Mus musculus, 168 h, 0.5 mg/kg × 10 days, measured at 7 days, read-out: Percent Inhibition (of tumor growth), 7 days
  inhibition in vivo at 0.5 mg/kg: 100%
[5]; [7]
  inhibition in vivo at 0.125 mg/kg: 93%
  inhibition in vivo at 0.25 mg/kg: 100%
B16 malignant melanoma; 0.15 mg/kg × 3 days
  Percent Prolongation (of survival time): 71%
B16 malignant melanoma; 0.3 mg/kg × 3 days
  Percent Prolongation (of survival time): 100%
B16 malignant melanoma; 0.6 mg/kg × 3 days
  Percent Prolongation (of survival time): 109%
B16 malignant melanoma; 0.9 mg/kg × 3 days
  Percent Prolongation (of survival time): 84%
B16 malignant melanoma; 1.2 mg/kg × 3 days
  Percent Prolongation (of survival time): 69%

## CC[C@]1(O)C[C@H]2CN(CCc3c([nH]c4ccccc34)[C@@](C(=O)OC)(c3cc4c(cc3OC)N(C=O)[C@H]3[C@@](O)(C(=O)OC)[C@H](OC(C)=O)[C@]5(CC)C=CCN6CC[C@]43[C@@H]65)C2)C1 [vincristine, leurocristine]
[4]
  activity in the treatment of experimental malignancies: found active in the treatment of experimental malignancies in animals

## leurosidine
[4]
  activity in the treatment of experimental malignancies: found active in the treatment of experimental malignancies in animals
